Results published in publication PMC12637173, “Investigation on LASSBio‐1971 and LASSBio‐1974 Cellular Cytotoxic Mechanism and Their Comparative DMPK Profile” (Archiv Der Pharmazie, 2025).
Read-outs that look alike come from different tables or passages of the source.

Columns and labels:
PC‐9 (EGFRL858R) [1] = assay: Apoptosis by flow cytometry (Muse Annexin V & Dead Cell Kit); type: cell-based, human; settings: PC‐9, 72 h; for increase in the population of cells undergoing apoptosis: at their CC50; for phosphatidylserine externalization and cell membrane permeabilization, share of the NSCLC cell population: LASSBio‐1974 10 µM, CA‐4 0.1 µM
Method: (§1) PC‐9 (EGFRL858R) cell line was seeded at 1 × 10^5 cells/well in a 24‐well plate. […] All flow cytometry assays were performed using Guava Muse Cell Analyzer (Cytek Biosciences) following each kit user's guide provided by the manufacturer. Muse Cell Cycle Kit (catalog no. MCH100106) was chosen to evaluate cell cycle arresting. Apoptosis features were evaluated using Muse Annexin V & Dead Cell Kit (catalog no. MCH100105), as well as inactivation of EGFR using Muse EGFR‐RTK Activation Dual Detection Kit (catalog no. MCH200102). Statistical analysis was performed using one‐way ANOVA on data collected in duplicate from at least two independent experiments (n ≥ 2), employing GraphPad Prism software (version 8.0).

[2] = system: NCI‐H1975 (EGFRL858R/T790M); assay: Cell viability by MTT assay, NCI-H1975; settings: Homo sapiens; for IC50: read-out: cytotoxic activity, NCI-H1975 (EGFRL858R/T790M); for CC50: NCI-H1975, 72 h, read-out: cytotoxic activity CC50, NCI‐H1975 (EGFRL858R/T790M)
Method: (§3) All cell lines were harvested at 37°C and 5% CO2 atmosphere humid incubator.
(§4) Cells were plated at 1 × 10^4 to 3 × 10^4 cells/well and seeded in a 96‐well plate. After 16–24 h of cell acclimatization, compounds were added at 0.003–100 µM concentrations (1% DMSO vehicle). After 72 h, treatment was interrupted to measure cell viability using MTT (3‐(4,5‐dimethylthiazol‐2‐yl)‐2,5‐diphenyltetrazolium bromide) (50 µg/mL) [62]. Formazan formed by viable cells was solubilized after 4 h incubation with SDS/HCl solution (0.1 g/mL) and read at 570 nm in spectrophotometer.

EGFR in PC‐9 (EGFRL858R) = assay: EGFR activation by flow cytometry (Muse EGFR‐RTK Activation Dual Detection Kit); type: cell-based, human
Method: as §1

[3] = Conjugation with glutathione in rat liver microsomes; type: in vitro ADME; settings: RLM 1 mg/mL, 10 μM, 2 mM GSH, 60 min, LC/MS/MS
Method: Incubation with pooled RLMs (1 mg/mL protein) was conducted in 50 mM potassium phosphate buffer (pH 7.4) at 37°C in an incubator for 60 min. LASSBio‐1971 (1) and P‐chlorophenyl isocyanate (10 μM) and 2 mM GSH were added to the buffer. The incubation was initiated by NADPH‐generating system consisting of 40 mM NADP^+, 350 mM glucose‐6‐phosphate, 5 units/mL glucose‐6‐phosphate dehydrogenase, and 130 mM MgCl2. The incubation was terminated at 60 min by the addition of 1 mL of ACN (with 6% of formic acid, with a total volume of 1.25 mL). The quenched sample was then centrifuged at 10,500 × g for 15 min, and 1 mL of the supernatant was collected to be injected into the Q‐Exactive Plus ESI MS System (Thermo Scientific, USA).

PC‐9 (EGFRL858R) [4] = assay: Cell viability by sulforhodamine B (SRB) assay, PC-9; settings: Homo sapiens, 72 h, read-out: cytotoxic activity CC50, PC‐9 (EGFRL858R)
Method: as §3
(§5) Cells were plated at 1 × 10^4 to 3 × 10^4 cells/well and seeded in a 96‐well plate. After 16–24 h of cell acclimatization, compounds were added at 0.003–100 µM concentrations (1% DMSO as vehicle). The experimental procedure was handled as described by Vichai and Kirtikara [63]. After incubation, cells were fixed with trichloroacetic acid (TCA) (10% m/v) for 1 h at 4°C. SRB (0.004% w/v in acetic acid 1%) was added for 30 min and washed with acetic acid 1%.

EGFRwt = system: EGFRwt; design: method as in PMID 30626888; settings: in vitro enzymatic model; cited from earlier work
EGFRL858R = system: EGFRL858R; design: method as in PMID 30626888; settings: in vitro enzymatic model; cited from earlier work
EGFRL858R/T790M = system: EGFRL858R/T790M; design: method as in PMID 30626888; settings: in vitro enzymatic model; cited from earlier work
PAMPA‐GIT = type: in vitro ADME
Method: (§2) The lipid mixture that impregnates the filter has a different constitution for the permeability tests for the BBB (brain lipid from pig extract in n‐dodecane) and the GIT (L‐α soy phosphatidylcholine in n‐dodecane). The optical density values obtained in the reading at each selected wavelength, for each of the compounds, were analyzed in comparison with the values of several controls within a calibration curve (≥ 7 drugs). In the case of the BBB, these values were used to elaborate an equation and determine the permeability coefficient (Pe), while GIT used absorbed fraction (Fa%).

NCI‐H292 (EGFRwt) [5] = assay: Cell viability by MTT assay, NCI-H292; settings: for IC50: read-out: cytotoxic activity, NCI-H292 (EGFRw.t.)
Method: as §3, §4

NCI‐H292 (EGFRwt) [6] = assay: Cell viability by sulforhodamine B (SRB) assay, NCI-H292; settings: Homo sapiens, NCI-H292, 72 h, read-out: cytotoxic activity CC50, NCI‐H292 (EGFRwt)
Method: as §3, §5

PAMPA‐BBB = type: in vitro ADME; settings: PAMPA‐BBB; for Pe. Exp. BBB / Papp: mean ± standard deviation (n = 3); for Papp: read-out: Pe. Exp. BBB
Method: as §2

[7] = system: NCI‐H1975 (EGFRL858R/T790M); assay: Cell viability by sulforhodamine B (SRB) assay, NCI-H1975; type: cell-based; settings: Homo sapiens, 72 h, read-out: cytotoxic activity CC50, NCI‐H1975 (EGFRL858R/T790M)
Method: as §3, §5

PC‐9 (EGFRL858R) [8] = assay: Cell viability by MTT assay, PC-9; settings: for IC50: read-out: cytotoxic activity, PC-9 (EGFRL858R)
Method: as §3, §4

PC‐9 (EGFRL858R) [9] = assay: Cell cycle by flow cytometry (Muse Cell Cycle Kit); type: cell-based, human; settings: PC‐9, 24 h
Method: as §1

[10] = Microsomal metabolic stability; type: in vitro ADME, rat; settings: for Metabolism rate: RLM 1 mg/mL, 10 μM, 60 min; for half-life at 10 µM / microsomal CLint at 10 µM: rat, rat liver microsomes
Method: The metabolic stability of compounds LASSBio‐1971 (1) and LASSBio‐1974 (2) (10 μM) was incubated in 1 mg/mL of rat microsomes in the presence and absence of the cofactor (i.e., NADPH‐generating system) at the same concentrations as in the previous section. After mixing and incubating at 37°C in a shaking water bath for 1 h, 500 µL cold acetonitrile containing the internal standard was added to terminate the reaction at different time intervals (0, 15, 30, 45, and 60 min).

[11] = PAMPA-GIT, standard drugs; literature value, ref not given; cited from earlier work
[12] = PC‐9, at respective CC50, compared to vehicle (DMSO 1%)
[13] = PAMPA‐GIT, mean ± standard deviation (n = 3), read-out: Pe. Exp. GIT
[14] = Homo sapiens, NCI-H292, 72 h, read-out: cytotoxic activity CC50, NCI‐H292 (EGFRwt), MTT, 72 h
[15] = Homo sapiens, 72 h, read-out: cytotoxic activity CC50, PC‐9 (EGFRL858R)
[16] = NADPH regenerator system: Absence
[17] = NADPH regenerator system: Presence
[18] = RLM, NADPH regenerator system: Absence
[19] = RLM, NADPH regenerator system: Presence

C#Cc1cccc(Nc2ncnc3cc(OCCOC)c(OCCOC)cc23)c1 [Erlotinib, erlotinib, reference compound]
increase in the population of cells undergoing apoptosis (PC‐9 (EGFRL858R) [1]): approximately 10%
IC50 ([2]; NCI-H1975, 48 h): > 100 µM

C=CC(=O)Nc1ccc2ncc(NC(=O)Nc3ccccc3)nc2c1 [LASSBio‐1971 (1)]
inhibition of phosphorylation and activation of EGFR (EGFR in PC‐9 (EGFRL858R); [12]): inhibit phosphorylation
covalent adduct formation with glutathione [3]: a covalent adduct between glutathione and LASSBio‐1971 (1) was formed
CC50 (PC‐9 (EGFRL858R) [4]): 1.02 µM
IC50 (EGFRwt): 0.025 ± 0.004 µM
IC50 (EGFRL858R): 0.018 ± 0.003 µM
apoptosis phenotype induction (PC‐9 (EGFRL858R) [1]): could not induce an apoptosis phenotype
IC50 (EGFRL858R/T790M): 1.68 ± 1.51 µM
Classification GIT (PAMPA‐GIT; PAMPA‐GIT): High (high intestinal permeability (70%–100%))
Fa (absorbed fraction) (PAMPA‐GIT; PAMPA‐GIT): 94.62%
Papp (PAMPA‐GIT; [13]): 7.69 ± 0.7 ×10⁻⁶ cm/s
IC50 (NCI‐H292 (EGFRwt) [5]; Homo sapiens, NCI-H292, 24 h): 18.4 µM
IC50 (NCI‐H292 (EGFRwt) [5]; Homo sapiens, NCI-H292, 48 h): 8.85 µM
CC50 (NCI‐H292 (EGFRwt) [5]; [14]): 1.5 µM
CC50 (NCI‐H292 (EGFRwt) [5]; read-out: cytotoxic activity CC50, NCI‐H292 (EGFRwt), MTT, 72 h): 1.51 µM
CC50 (NCI‐H292 (EGFRwt) [6]): 4.95 µM
Classification BBB (PAMPA‐BBB): CNS +
Pe. Exp. BBB (PAMPA‐BBB): 4.16 10^−6 cm/s
Papp (PAMPA‐BBB): 4.16 ± 1.84 ×10⁻⁶ cm/s
CC50 [7]: 18.5 µM
IC50 (PC‐9 (EGFRL858R) [8]; Homo sapiens, 24 h): 6.42 µM
IC50 (PC‐9 (EGFRL858R) [8]; Homo sapiens, 48 h): 0.14 µM
CC50 (PC‐9 (EGFRL858R) [8]; [15]): 0.13 µM
cell cycle arrest phase (PC‐9 (EGFRL858R) [9]; 1 µM): G0/G1 phase arrest
IC50 ([2]; NCI-H1975, 24 h): 51.3 µM
IC50 ([2]; NCI-H1975, 48 h): 6.45 µM
CC50 [2]: 5.1 µM
Metabolism rate [10, 16]: 21.99%
Metabolism rate [10, 17]: 53.93%
Elimination rate constant (k) [10, 18]: 0.0039
Elimination rate constant (k) [10, 19]: 0.0129
t 1/2 [10, 19]: 53.72 min
half-life at 10 µM [10, 18]: 178 min
microsomal CLint at 10 µM [10, 18]: 0.975 µL/min/mg
half-life at 10 µM [10, 19]: 53.7 min
microsomal CLint at 10 µM [10, 19]: 3.23 µL/min/mg

CN(C)C/C=C/C(=O)Nc1ccc2ncc(NC(=O)Nc3ccccc3)nc2c1 [LASSBio‐1974 (2)]
inhibition of phosphorylation and activation of EGFR (EGFR in PC‐9 (EGFRL858R); [12]): inhibit phosphorylation
CC50 (PC‐9 (EGFRL858R) [4]): 1.22 µM
IC50 (EGFRwt): 0.101 ± 0.012 µM
IC50 (EGFRL858R): 0.032 ± 0.014 µM
phosphatidylserine externalization and cell membrane permeabilization, share of the NSCLC cell population (PC‐9 (EGFRL858R) [1]): ~90%
IC50 (EGFRL858R/T790M): 0.132 ± 0.049 µM
Classification GIT (PAMPA‐GIT; PAMPA‐GIT): Low (low permeability (0%–29%))
Fa (absorbed fraction) (PAMPA‐GIT; PAMPA‐GIT): 26.78%
Papp (PAMPA‐GIT; [13]): 0.82 ± 0.47 ×10⁻⁶ cm/s
IC50 (NCI‐H292 (EGFRwt) [5]; Homo sapiens, NCI-H292, 24 h): 16.4 µM
IC50 (NCI‐H292 (EGFRwt) [5]; Homo sapiens, NCI-H292, 48 h): 7.25 µM
CC50 (NCI‐H292 (EGFRwt) [5]; [14]): 4.98 µM
CC50 (NCI‐H292 (EGFRwt) [6]): 8.99 µM
Classification BBB (PAMPA‐BBB): CNS ±
Pe. Exp. BBB (PAMPA‐BBB): 2.37 10^−6 cm/s
Papp (PAMPA‐BBB): 2.37 ± 0.44 ×10⁻⁶ cm/s
CC50 [7]: 20.5 µM
IC50 (PC‐9 (EGFRL858R) [8]; Homo sapiens, 24 h): 9.74 µM
IC50 (PC‐9 (EGFRL858R) [8]; Homo sapiens, 48 h): 1.22 µM
CC50 (PC‐9 (EGFRL858R) [8]; [15]): 1.1 µM
cell cycle arrest phase (PC‐9 (EGFRL858R) [9]; 1 µM): cycle arresting in the G0/G1 phase
cell cycle arrest phase (PC‐9 (EGFRL858R) [9]; 10 µM): cell cycle arrest in G2/M phase
IC50 ([2]; NCI-H1975, 24 h): 38 µM
IC50 ([2]; NCI-H1975, 48 h): 6.58 µM
CC50 [2]: 7.09 µM
Metabolism rate [10, 16]: 10.78%
Metabolism rate [10, 17]: 83.11%
Elimination rate constant (k) [10, 18]: 0.0016
Elimination rate constant (k) [10, 19]: 0.1172
half-life at 10 µM [10, 18]: 433 min
microsomal CLint at 10 µM [10, 18]: 0.4 µL/min/mg
half-life at 10 µM [10, 19]: 5.91 min
microsomal CLint at 10 µM [10, 19]: 29.3 µL/min/mg

C=CC(=O)Nc1cc(Nc2nccc(-c3cn(C)c4ccccc34)n2)c(OC)cc1N(C)CCN(C)C [Osimertinib, osimertinib, reference compound]
inhibition of phosphorylation and activation of EGFR (EGFR in PC‐9 (EGFRL858R)): inhibited phosphorylation
CC50 (PC‐9 (EGFRL858R) [4]): 0.07 µM
increase in the population of cells undergoing apoptosis (PC‐9 (EGFRL858R) [1]): approximately 10%
IC50 (NCI‐H292 (EGFRwt) [5]; Homo sapiens, NCI-H292, 48 h): 6.81 µM
CC50 (NCI‐H292 (EGFRwt) [5]; Homo sapiens, NCI-H292, 72 h, read-out: cytotoxic activity CC50, NCI‐H292 (EGFRwt)): 6.3 µM
CC50 (NCI‐H292 (EGFRwt) [6]): 6.86 µM
IC50 (PC‐9 (EGFRL858R) [8]; Homo sapiens, 24 h): 8.32 µM
IC50 (PC‐9 (EGFRL858R) [8]; Homo sapiens, 48 h): 0.17 µM
CC50 (PC‐9 (EGFRL858R) [8]; [15]): 0.05 µM

CNC(=C[N+](=O)[O-])NCCSCc1ccc(CN(C)C)o1 [Ranitidine]
Classification (PAMPA‐GIT; PAMPA-GIT, standard drugs used as control): Medium (medium permeability (30%–69%))
Fa exp. (PAMPA‐GIT; PAMPA-GIT, standard drugs used as control (n = 2)): 38.29%
Papp (PAMPA‐GIT; PAMPA-GIT, standard drugs used as control (n = 2), read-out: Pe experimental): 0.3 ×10⁻⁶ cm/s

O=C(O)c1cc(/N=N/c2ccc(S(=O)(=O)Nc3ccccn3)cc2)ccc1O [Sulfasalazine]
Fa lit. [11]: 42%
Pe literature [11]: 0.30 10^-6 cm s^-1

COc1ccc(/C=C\c2cc(OC)c(OC)c(OC)c2)cc1O [combretastatin A4, reference compound]
phosphatidylserine externalization and cell membrane permeabilization, share of the NSCLC cell population (PC‐9 (EGFRL858R) [1]): ~60%
CC50 (PC‐9 (EGFRL858R) [8]; read-out: CC50 stated in figure legend, PC‐9, CC50 given as concentration used in flow cytometry, assay and time not stated): 0.1 µM
